Measurements: patent US20160000782A1, “PHARMACEUTICAL COMPOSITION CONTAINING ANTIBACTERIAL AGENT” (priority 2013, published 2016)

Tested on: Archaea (extreme halophile) infection causing dementia
Test: Treatment of patients with progressive dementia of unknown etiology (clinical course, MRI)
Format: in vivo, human
Experimental: The present inventors conducted studies by targeting 4 subjects with progressive dementia of unknown etiology at the Kagoshima University Medical and Dental Hospital. This study took place after the informed consent of the patients involved had been obtained. Also, this study was carried out with the approval of the ethical review committee of Kagoshima University.
Dementia was evaluated using the Revised Hasegawa Dementia Scale (HDS-R), which is […] that used for the mini-mental status examination (MMSE).

Structure (SMILES): CO/N=C(\C(=O)N[C@@H]1C(=O)N2C(C(=O)O)=C(CSc3nc(=O)c(=O)[nH]n3C)CS[C@H]12)c1csc(N)n1 [ceftriaxone]
- symptoms (Patient 1, ceftriaxone and methylprednisolone administered together, 2 weeks after the initial administration): improved slightly
- symptoms thereafter (Patient 1, ceftriaxone and methylprednisolone administered together, later course, enlarged lesion in base of temporal lobe on brain MRI): tended to progress
- improvement (Patient 3, ceftriaxone 4 g/day intravenous for 2 weeks): no improvement was observed
